From patent US20110312984A1, “STAT3 INHIBITORS” (priority 2008, published 2011)

Test system: triple negative human breast cancer xenograft
Assay: Triple-negative human breast cancer xenograft, MSFE after two days of treatment
Format: in vivo, SCID Beige mice
Conditions: 250 mcg, n=3, P<0.05
Source text: A tumor line derived from a “triple negative” (ER-negative, PgR-negative, and HER-2 negative) human breast cancer biopsy specimen was transplanted into immunocompromised SCID Beige mice. The animals (n=3) received two doses of vehicle control, 2 different doses of Cpd 188 (125 or 250 mcg), a G-quartet oligodeoxynucleotide (GQ-ODN, T40214; GQ-I) previously determined to target Stat3 (Jing et al., 2004) and a control non-specific ODN (GQ-II) each at two doses (125 or 250 mcg). The animals were sacrificed after only two days of treatment, and MSFE determined.
Xenograft assays. One can use two xenografts developed from human breast cancer biopsies that express activated p-Stat3 by IHC. From these established xenograft lines, for each of the top 5 inhibitors, the following studies may be undertaken: a) short term experiments with stem cell inhibitors at two doses vs. vehicle control and b) the optimal dose of the combination of chemotherapy with each of the five stem cell inhibitors.
a) Short term (2-day) experiments: One can test the five inhibitors at 2 doses. […]
b) Long-term (2-week studies) experiments: One can assess the effect of the self-renewal inhibitor on tumor growth and stem cell behavior. […] Size of the xenografts is monitored longitudinally by caliper measurement using the RECIST criteria for assessment of tumor response. […]

O=C(O)CSc1cc(NS(=O)(=O)c2ccc(C(=O)O)cc2)c2ccccc2c1O [Cpd188, 4-[({3-[(carboxymethyl)thio]-4-hydroxy-1-naphthyl}amino)sulfonyl]benzoic acid]
reduction in MSFE compared to control: significant reduction
